One data set relates to Sk-Hep1 tumor. Description: HCC Sk-Hep1 xenograft model. Format: in vivo, NSG mice. The text has this: (§1) To further test whether the tumor growth inhibition effect of NC5 applied to other solid tumors, the HCC-Sk-Hep1cell line and PDAC-BXPC3 cell line xenograft models were used. Subcutaneous injection of 1.5×10^6 SK-Hep1 or BXPC3 cells in NSG mice, Six-ten days after tumor cell injection, the palpable tumor in NSG mice was confirmed.
To test the effects of the disclosed compounds on the xenograft mouse models, the HCC-Sk-Hep1 cell line xenograft model in NSG mice and 4T1-Luc orthotopic syngeneic breast tumor model in Balb/c mice was used. After confirming the palpable tumor in NSG or Balb/c mice. […] Compound III is referred to as “NC5-140-1” and Compound I is referred to as “NC5-140-2” in FIGS. 11A-11C.

The subject of data set [1] is CrkL (phosphorylation at Y207 by Ab1). Briefly: AlphaScreen of Ab1 phosphorylation of CrkL at Y207. Format: biochemical. The conditions noted are these: positive hits defined as a 50% decrease in Alpha signal vs DMSO.
The target in a further data set is Ab1 (Homo sapiens, UniProt P00519). Briefly: Thermal shift assay, Ab1. In kind it is binding.
The subject of another data set is AML cell line (MoLM-13). Description: CCK-8 cell viability, MoLM-13. In kind it is cell-based, human. The conditions noted are these: 1 uM, 5 uM, 10 uM; 48 hours. On the procedure:
In this example, activities of NC5, Compound III, and the known chemotherapeutic, Cytarabine, were evaluated in the AML cell line (MoLM-13). MoLM-13 cells were collected and seeded at 5,000 cells/well in 96-well plates. The cells were incubated for 24 hours before the addition of either DMSO control or drug at various concentrations. After an additional 48 hours of incubation, 3 μL of CCK-8 was added to every well and incubated at 37° C. for 3 hours. Absorbance was measured at 460 nm in a plate reader. […] The related absorbance was normalized and plotted as line graphs. p-values were determined through two tails student t-tests (*=p<0.5, **=p<0.01, ***=p<0.001).

The subject of another data set is BXPC3 tumor. Briefly: PDAC BXPC3 xenograft model. Format: in vivo, NSG mice. As for the experimental part: For HCC or PDAC xenograft models, NSG mice 8-week-old) were injected subcutaneously with 1×10^6 HepG2 or BXPC3 tumor cells mixed with Matrigel.
as §1

Data set [2] relates to breast cancer cells (MCF7, MDA-MB-453, MDA-MB-231, MDA-MB-231-GFP-LUC, Hs578t, MDA-MB-468). Description: MTT assay, breast cancer cell lines (TNBC and non-TNBC). In kind it is cell-based. The conditions noted are these: 72 h, three days after treatment. On the procedure:
Peripheral blood mononuclear cells (PBMCs, line with the symbol □) were used to determine the specificities of the cytotoxic effects of Pomiferin. The survival curve of PBMC-average is from four different healthy donors. Cells (1×10^3−3×10^3) were plated in 96-well plates, and cell growth was determined by MTT assay three days after cells were treated with Pomiferin at the indicated doses.
MTT assay—The MTT assay was used to detect cell proliferation. Briefly, cells were plated in a 96-well plate at a density of 50,000 cells/well in 200 μl of culture medium with candidate drugs to be tested (DMSO as a negative control). The treated cells were incubated for four hours a 37° C. with a 5% CO2 incubator to allow dark crystals to form at the bottom of the wells. After culturing for 48 hours, […] of MTT reagent was added to each well and mixed gently for one minute. After aspirating the culture medium from each well, 100 μl of crystal dissolving solution was added to each well and incubated for 10 minutes at RT. The signal was quantified by measuring the absorbance in each sample at 570 nm using a microplate reader.

The test system of the next data set is PBMC cells. Briefly: Annexin V/PI apoptosis, PBMC. Format: cell-based, human. The conditions noted are these: various concentrations, 24 hours. As for the experimental part: Annexin V/PI Staining—Experimental cells were collected, washed with 1×PBS, resuspended in the binding buffer, and stained with an Annexin V-FITC assay Kit (Millipore Sigma). The cells were incubated with 50 μg/ml Annexin V in 1× binding buffer at room temperature for 15 minutes, then 10 μg/ml propidium iodide for another 15 minutes and analyzed by flow cytometry (EPICS XL). Annexin V-positive/PI-negative cells were considered early apoptotic, cells with both Annexin V and PI-positive to be late apoptotic, and Annexin V negative but PI-positive to be “necrotic.” The percent of apoptosis was calculated as the sum of the percentages of both early and late apoptotic cells.
To figure out the features of cytotoxic effects of Pomiferin on breast cancer cells. Pomiferin-treated breast cancer cells were stained with an Annexin V/PI kit and measured them with Flow Cytometry.

Data set [3] concerns TM00089 TNBC patient-derived tumor. Description: TNBC patient-derived xenograft (PDX) TM00089 model. In kind it is in vivo, mice. The text has this: For the patient-derived xenograft (PDX) model, a cohort of mice engrafted with the TNBC tumor model #TM00089-Breast-Tumor Markers: TNBC ER−(estrogen receptor-negative)/PR—(progesterone receptor-negative)/HER2—(human epidermal growth factor receptor two negative), BRCA1 V757fs (4 to 6-weeks-old females) were obtained from Jackson Laboratories (Bar Harbor, ME). PDX models were generated by surgically engrafting tumor cells into the mammary fat pad of NSG™ (nonobese diabetic, severe combined immunodeficiency, interleukin-2 receptor gamma chain-null) mice.
To determine inhibition efficacy in vivo of Pomiferin in the TNBC clinical patient tumor, the therapeutic efficacy of Pomiferin in a patient-derived tumor xenograft mouse from the Jackson Laboratory PDX Live™ library was evaluated. The TM00089 breast invasive ductal carcinoma was selected, characterized as TNBC ER^−/PR^−/HER2^−, BRCA1^V757fs since TNBC tumors with BRCA1 mutations are generally the most aggressive and have the worst prognosis within the first five years after diagnosis compared to other types of breast cancers.

Sequence of Ab1 (P00519 whole entry): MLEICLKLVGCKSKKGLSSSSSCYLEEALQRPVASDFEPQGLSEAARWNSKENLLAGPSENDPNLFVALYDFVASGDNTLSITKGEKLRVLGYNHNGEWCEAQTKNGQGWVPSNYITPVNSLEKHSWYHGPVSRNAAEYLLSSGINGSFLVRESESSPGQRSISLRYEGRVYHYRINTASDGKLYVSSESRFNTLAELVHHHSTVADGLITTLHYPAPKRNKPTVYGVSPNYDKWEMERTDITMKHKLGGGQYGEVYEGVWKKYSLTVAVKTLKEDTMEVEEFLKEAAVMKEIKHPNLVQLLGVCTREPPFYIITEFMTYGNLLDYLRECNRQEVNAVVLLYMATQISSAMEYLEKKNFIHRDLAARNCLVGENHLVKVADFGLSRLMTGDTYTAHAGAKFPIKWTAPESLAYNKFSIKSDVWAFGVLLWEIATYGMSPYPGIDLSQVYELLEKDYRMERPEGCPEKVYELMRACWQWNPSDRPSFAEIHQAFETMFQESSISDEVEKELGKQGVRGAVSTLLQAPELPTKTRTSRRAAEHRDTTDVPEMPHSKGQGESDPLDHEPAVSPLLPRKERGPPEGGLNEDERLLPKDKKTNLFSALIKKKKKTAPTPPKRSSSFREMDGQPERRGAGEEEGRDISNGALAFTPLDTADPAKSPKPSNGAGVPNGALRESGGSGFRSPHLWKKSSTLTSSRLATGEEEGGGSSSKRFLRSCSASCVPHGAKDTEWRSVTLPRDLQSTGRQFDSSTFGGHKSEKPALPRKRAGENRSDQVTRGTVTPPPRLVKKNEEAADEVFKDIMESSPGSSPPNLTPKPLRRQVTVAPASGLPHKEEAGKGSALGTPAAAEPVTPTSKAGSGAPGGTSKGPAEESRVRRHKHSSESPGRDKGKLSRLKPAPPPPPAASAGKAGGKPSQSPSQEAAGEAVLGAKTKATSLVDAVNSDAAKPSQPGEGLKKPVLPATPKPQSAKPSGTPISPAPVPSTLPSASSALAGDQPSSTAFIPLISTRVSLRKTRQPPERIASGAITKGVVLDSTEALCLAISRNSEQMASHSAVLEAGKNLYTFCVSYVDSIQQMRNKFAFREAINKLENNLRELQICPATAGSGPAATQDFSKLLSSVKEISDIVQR

In the case of `CC(C)=CCc1c2c(c3occ(-c4ccc(O)c(O)c4)c(=O)c3c1O)C=CC(C)(C)O2` [Pomiferin, 3′,4′,5-Trihydroxy-6″,6″-dimethyl-6-(3-methylbut-2-en-1-yl)-6″H-pyrano[2″,3″:7,8]isoflavone], the tumor growth entry in the data set on Sk-Hep1 tumor (Pomiferin administered orally, two-group study) was “suppressed”; with Sk-Hep1 tumor (four-group study, 5.0 μg/g oral gavage) it was “inhibit tumor growth”; in the data set with BXPC3 tumor (Pomiferin administered orally), “suppressed”; in data set [3] (5.0 μg/g Pomiferin vs vehicle), “significantly more inhibited”. For the same compound, the median survival in the data set on Sk-Hep1 tumor (four-group study, 5.0 μg/g oral gavage, vehicle 26 days) came out at 34 days; in the data set on Sk-Hep1 tumor (two-group study, 5.0 μg/g oral, vehicle 24 days), 37 days; with BXPC3 tumor (5.0 μg/g oral, vehicle 37 days), 43.5 days; in data set [3] (Pomiferin 5 μg/g, vehicle 39 days), 53 days. The “tumor sizes before day 25 of inoculation” value in the data set with Sk-Hep1 tumor (four-group study, administered orally) is given as “no significant difference in tumor sizes”. Further, the “median survival, fold longer than vehicle control” value with Sk-Hep1 tumor (two-group study) was determined as 1.54 fold; in the data set on BXPC3 tumor (mouse, in vivo), 1.2 fold; in data set [3] (Pomiferin 5 μg/g) it was 1.4 fold. Also, the “AlphaScreen hit (inhibition of Crk phosphorylation)” value in data set [1] is “identified hit”. Further, the “binding to Ab1 versus Crk (thermal shift)” value on Ab1 was “specifically binds to Crk, but not Ab1 proteins”. In addition, the “cell viability (CCK-8)” value with AML cell line (MoLM-13) was “decreased cell viability”. In data set [2], the IC50 was 1.3 to 3.6 µM. Also, the apoptosis result in the data set on PBMC cells is reported as “limited responses”. Also, the body weights entry in data set [3] (vs vehicle, during drug treatment period) was “not significantly different”.

Values taken from US20250154180A1, “CRK-LIKE (CRKL) ADAPTOR PROTEIN INHIBITORS AND METHODS OF MAKING AND USING THE SAME” (Rutgers, The State University of New Jersey, priority 2022, published 2025).
